Measured values from patent US20230339878A1, “SLC26A3 INHIBITORS AND USE THEREOF” (THE REGENTS OF THE UNIVERSITY OF CALIFORNIA, priority 2018, published 2023).
“Also recorded” adds a separate entry of the source.

Experiments:
slc26a3 = target: T1, slc26a3 (Mus musculus, UniProt Q9WVC8); test: slc26a3-mediated Cl-/SCN- exchange; format: cell-based, murine; details: read-out: IC50 for inhibition of slc26a3-mediated Cl-/SCN- exchange
T1 construct: host or cells: Fischer rat thyroid (FRT) cells expressing YFP, clonal line FRT-YFP-slc26a3
T1 sequence (Q9WVC8 1-757): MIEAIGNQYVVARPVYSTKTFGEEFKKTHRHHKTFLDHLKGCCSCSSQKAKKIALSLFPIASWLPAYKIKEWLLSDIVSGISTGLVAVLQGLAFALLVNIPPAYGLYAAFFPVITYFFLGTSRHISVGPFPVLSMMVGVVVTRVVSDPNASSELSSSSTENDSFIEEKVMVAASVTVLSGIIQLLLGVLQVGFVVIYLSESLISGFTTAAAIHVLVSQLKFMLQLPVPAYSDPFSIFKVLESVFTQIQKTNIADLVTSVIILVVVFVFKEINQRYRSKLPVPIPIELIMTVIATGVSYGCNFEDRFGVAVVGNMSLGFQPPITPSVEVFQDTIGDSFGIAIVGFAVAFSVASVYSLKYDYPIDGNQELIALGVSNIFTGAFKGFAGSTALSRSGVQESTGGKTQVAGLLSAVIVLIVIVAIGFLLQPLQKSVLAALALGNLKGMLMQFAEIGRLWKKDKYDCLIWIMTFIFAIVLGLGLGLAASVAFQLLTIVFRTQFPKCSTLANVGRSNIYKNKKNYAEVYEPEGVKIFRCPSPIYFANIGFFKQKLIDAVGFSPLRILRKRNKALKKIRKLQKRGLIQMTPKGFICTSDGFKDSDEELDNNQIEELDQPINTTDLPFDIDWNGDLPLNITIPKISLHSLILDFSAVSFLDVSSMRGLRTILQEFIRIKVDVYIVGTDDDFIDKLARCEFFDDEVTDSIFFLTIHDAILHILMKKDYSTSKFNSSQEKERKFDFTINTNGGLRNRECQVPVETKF
Description: Concentration-dependence measurements for inhibition of slc26a3-mediated exchange of Cl^- and HCO3^-, the physiologically relevant activity of slc26a3, was measured using slc26a3-expressing FRT cells labeled with BCECF as a cytoplasmic pH sensor. Labeled cells were initially incubated in a Cl^--containing HCO3^- buffered solution, and HCO3^- influx / Cl^- efflux with cytoplasmic alkalinization was produced by addition of a gluconate-containing HCO3^- buffered solution. […] Concentration-dependence measurements for inhibition of slc26a3-mediated Cl^-/SCN^- exchange gave an IC50 of ~0.3 µM (FIG. 4B).

PAT-1 (slc26a6) = target: T2, PAT-1 (slc26a6) (Mus musculus, UniProt Q8CIW6); test: Selectivity: slc26a6 Cl-/I- exchange in HEK cells; format: cell-based, murine; details: 10 µM
T2 construct: full-length slc26a6 was subcloned into pLVX-YFP-T2A-Puro as an EcoRI to XbaI fragment; host or cells: HEK293 cells infected with lentivirus, puromycin selected
T2 sequence (Q8CIW6 1-758): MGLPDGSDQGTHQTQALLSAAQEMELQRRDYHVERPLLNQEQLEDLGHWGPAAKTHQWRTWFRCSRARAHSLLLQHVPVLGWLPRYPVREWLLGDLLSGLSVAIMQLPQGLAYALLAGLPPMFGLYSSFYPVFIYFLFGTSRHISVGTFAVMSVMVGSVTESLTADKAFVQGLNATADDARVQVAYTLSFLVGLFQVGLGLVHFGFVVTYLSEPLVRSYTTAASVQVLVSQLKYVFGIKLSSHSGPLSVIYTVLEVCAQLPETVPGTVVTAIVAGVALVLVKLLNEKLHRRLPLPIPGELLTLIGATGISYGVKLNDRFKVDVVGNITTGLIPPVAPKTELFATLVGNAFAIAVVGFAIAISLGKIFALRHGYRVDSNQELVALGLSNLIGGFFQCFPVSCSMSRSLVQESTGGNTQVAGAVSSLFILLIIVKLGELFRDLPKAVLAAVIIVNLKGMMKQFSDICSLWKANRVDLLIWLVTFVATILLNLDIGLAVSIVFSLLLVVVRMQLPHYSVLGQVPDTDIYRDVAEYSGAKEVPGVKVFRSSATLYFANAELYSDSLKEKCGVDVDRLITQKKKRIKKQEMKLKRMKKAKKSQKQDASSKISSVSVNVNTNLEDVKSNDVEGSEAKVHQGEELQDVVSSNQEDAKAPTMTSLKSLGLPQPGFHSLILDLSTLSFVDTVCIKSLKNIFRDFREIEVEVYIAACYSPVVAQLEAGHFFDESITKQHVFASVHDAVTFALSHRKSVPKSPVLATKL

[1] = test system: mouse distal colonic closed loops; test: Closed distal colonic loop fluid absorption in mice; format: in vivo; details: 10 µM intraluminal, 60 min
Description: (§1) Female CD1 mice (age 8-10 weeks) were given free access to Pedialyte (per liter: Na^+ 45 mEq, Cl^- 35 mEq, K^+ 20 mEq, dextrose 25 g; Abbott, Abbot Park, IL) but not solid food for 48 h before experiments. Mice were treated with 500 µL mineral oil once a day rectally (last dose 12 h before surgeries) during this period to evacuate the colon. Closed intestinal loops were isolated as described. Mice were anesthetized with isoflurane and body temperature was maintained during surgery at 36-38° C. using a heating pad. A small abdominal incision was made to expose the distal colon, and one closed distal colonic loop (length 1.5-2 cm) was isolated with sutures in each mouse. Loops were injected with 100 µL phosphate-buffered saline (PBS, pH: 7.4, in mM: 137 NaCl, 2.7 KCl, 8 Na2HPO4, 1.8 KH2PO4, 1 CaCl2, 0.5 MgCl2) without and with 10 µM Compound A1 and/or 10 µM tenapanor (MedChemExpress, Monmouth Junction, NJ). The abdominal incision was closed with sutures, and mice were allowed to recover from anesthesia. Colonic loops were removed at 0 and 60 min (in separate mice) and loop length and weight were measured to quantify fluid absorption. Luminal fluid was emptied with a syringe and pH was measured immediately using AB15 pH Meter (Thermo Fisher Scientific, South San Francisco, CA). In separate studies, mid-jejunal loops (length 2-3 cm, 3-4 loops per mouse) were isolated as described above, injected with 100 µL PBS without or with 10 µM Compound A1 and/or 10 µM tenapanor, and excised at 0 and 30 min to measure loop length and weight.
Closed intestinal loop studies in mice were done to study effects of Compound A1 on fluid absorption. […] Changes in luminal pH were also determined as a semi-quantitative measure of slc26a3-facilitated HCO3^- secretion / C1^- absorption, with slc26a3 inhibition predicted to reduce luminal fluid alkalinization. For these experiments, a phosphate-buffered solution (PBS) without HCO3^- / CO2 was used to avoid confounding effects of luminal carbonic anhydrases. […] Administration of the NHE3 (Na^+/H^+ exchanger 3) inhibitor tenapanor had no effect on weight/length ratio or luminal pH in distal colonic loops.

[2] = test system: mouse mid-jejunal closed loops; test: Closed mid-jejunal loop fluid absorption in mice; format: in vivo; details: 10 µM intraluminal, 30 min
Description: as §1

SMILES: Cc1c(CC(=O)O)c(=O)oc2c(C)c(OCc3cccc(Br)c3)ccc12 [Compound A1]
- IC50 (slc26a3): ~300 nM
- effect on Cl-/I- exchange activity of PAT-1 (slc26a6) (PAT-1 (slc26a6)): did not alter; also recorded: did not inhibit; also recorded: differences not significant
- loop weight/length ratio (fluid absorption), distal colonic loops [1]: completely prevented the reduction in loop weight/length ratio; also recorded: blocked fluid absorption in closed colonic loops; also recorded: inhibits intestinal fluid absorption in mouse distal colon
- luminal pH, distal colonic loops [1]: reduced alkalinization of luminal fluid
- loop weight/length ratio (fluid absorption), mid-jejunal loops [2]: did not produce significant changes; also recorded: not in jejunal loops
- luminal fluid pH, mid-jejunal loops [2]: did not alter acidification
